The target in one assay is T1, Aurora kinase A (Homo sapiens, UniProt O14965).
T1 sequence (O14965 whole entry): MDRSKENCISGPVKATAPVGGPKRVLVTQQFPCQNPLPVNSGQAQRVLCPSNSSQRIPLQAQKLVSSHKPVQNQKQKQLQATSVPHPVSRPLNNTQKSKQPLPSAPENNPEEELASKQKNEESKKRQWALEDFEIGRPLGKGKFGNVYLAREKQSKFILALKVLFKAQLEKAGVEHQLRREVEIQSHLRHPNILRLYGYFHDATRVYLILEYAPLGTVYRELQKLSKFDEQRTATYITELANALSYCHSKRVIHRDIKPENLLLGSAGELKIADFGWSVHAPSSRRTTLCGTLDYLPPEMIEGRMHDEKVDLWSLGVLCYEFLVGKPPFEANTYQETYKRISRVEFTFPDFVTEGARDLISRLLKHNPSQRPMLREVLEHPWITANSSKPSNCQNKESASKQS
Briefly: Inhibition of human Aurora A using H-LRRASLG as substrate after 2 hrs by HotSpot assay in presence of 33P-ATP and 10 uM ATP.

The target in another assay is Aurora kinase B (Homo sapiens, UniProt Q96GD4). Briefly: Inhibition of human Aurora B using H-LRRASLG as substrate after 2 hrs by HotSpot assay in presence of 33P-ATP and 10 uM ATP.

Molecules are shown by their SMILES.

Aurora kinase B, sequence (Q96GD4 whole entry): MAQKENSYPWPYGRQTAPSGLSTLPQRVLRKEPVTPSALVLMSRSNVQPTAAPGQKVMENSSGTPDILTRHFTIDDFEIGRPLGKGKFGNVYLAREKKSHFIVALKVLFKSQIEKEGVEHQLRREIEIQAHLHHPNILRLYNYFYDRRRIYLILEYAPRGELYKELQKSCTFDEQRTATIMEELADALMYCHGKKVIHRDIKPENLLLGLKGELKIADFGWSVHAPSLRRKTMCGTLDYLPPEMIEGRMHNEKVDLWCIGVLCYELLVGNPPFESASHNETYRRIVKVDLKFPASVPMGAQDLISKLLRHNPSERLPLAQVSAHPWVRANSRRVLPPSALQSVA

For `COC(=O)c1cccc(NC(=O)c2cc(-n3cc(-c4cc(OC)cc(OC)c4)nn3)ccc2O)c1`, the IC50 – broadly, the concentration needed to halve the response being measured – was 0.768 µM on Aurora kinase A and 5.94 µM on Aurora kinase B.
`COC(=O)c1cccc(NC(=O)c2cc(-n3cc(CNc4ccccc4)nn3)ccc2O)c1`: the half-inhibitory concentration (IC50) at Aurora kinase A stood at 5.15 µM; on Aurora kinase B, 36.5 µM.
`COC(=O)c1cccc(NC(=O)c2cc(-n3cc(CNc4cc(C)[nH]n4)nn3)ccc2O)c1`: the IC50 on Aurora kinase A was determined as 13.7 µM; at Aurora kinase B, 49.5 µM.
The corresponding values for `COC(=O)c1cccc(NC(=O)c2cc(-n3cc(CNc4nc5ccccc5o4)nn3)ccc2O)c1` are 3.52 µM and 10.2 µM.
As to `COC(=O)c1cccc(NC(=O)c2cc(-n3cc(CCNc4ncnc5ccsc45)nn3)ccc2O)c1`, the figures for the IC50 on Aurora kinase A and at Aurora kinase B were 2.97 µM and 0.364 µM, respectively.
In the case of `COC(=O)c1cccc(NC(=O)c2cc(-n3cc(CNc4cc(C)ccn4)nn3)ccc2O)c1`, the results for the IC50 on Aurora kinase A and at Aurora kinase B were 6.07 µM and 16.3 µM, respectively.
Regarding `COC(=O)c1cccc(NC(=O)c2cc(-n3cc(CCNc4ncccn4)nn3)ccc2O)c1`, the figures for the IC50 on Aurora kinase A and at Aurora kinase B were 7.67 µM and 15.2 µM, respectively.
In the case of `COC(=O)c1cccc(NC(=O)c2cc(-n3cc(CNc4ccccn4)nn3)ccc2O)c1`, the IC50 at Aurora kinase A came to 6.43 µM; on Aurora kinase B it was 32.1 µM.
Regarding `COC(=O)c1cccc(NC(=O)c2cc(-n3cc(-c4ccc5c(c4)OCO5)nn3)ccc2O)c1`, the IC50 on Aurora kinase A was determined as 0.638 µM; on Aurora kinase B, 2.19 µM.
On the same counts, the results for `COC(=O)c1cccc(NC(=O)c2cc(-n3cc(-c4ccc5nccnc5c4)nn3)ccc2O)c1` are 0.607 µM and 7.3 µM.
On the same counts, the results for `COC(=O)c1cccc(NC(=O)c2cc(-n3cc(CNc4ncnc5ccsc45)nn3)ccc2O)c1` are 0.801 µM and 20.1 µM.
With `COC(=O)c1cccc(NC(=O)c2cc(-n3cc(CNc4ncccn4)nn3)ccc2O)c1`, the IC50 amounted to 15.4 µM on Aurora kinase A and 40.7 µM on Aurora kinase B.
On the same counts, the results for `COC(=O)c1cccc(NC(=O)c2cc(-n3cc(CNc4cc(C)on4)nn3)ccc2O)c1` are 12.4 µM and 54.8 µM.
On the same counts, the results for `COC(=O)c1cccc(NC(=O)c2cc(-n3cc(-c4cccc([N+](=O)[O-])c4)nn3)ccc2O)c1` are 0.284 µM and 1.33 µM.

The values are drawn from ChEMBL document CHEMBL3792279, “Design, synthesis, and evaluation of hinge-binder tethered 1,2,3-triazolylsalicylamide derivatives as Aurora kinase inhibitors” (Bioorg Med Chem, 2016).
